# Data published in PubChem BioAssay (NCI).
#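 Dose response: 5 concentrations. Exposure: 48 h. Format: 96-well plates. Endpoint: linear interpolation; highest concentration if not reached. At the TGI there is no net growth.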 Where a SMILES comes first, the peptide text is derived from it. The star is where a group is joined. Boc = CC(C)(C)OC(=O)*
# Assays:
# Test in all cases: DTP human tumour cell line panel, 48 h
# HS 578T breast = test system: HS 578T breast
# MCF7 breast = test system: MCF7 breast
# NCI-H226 lung = test system: NCI-H226 lung
# OVCAR-5 ovarian = test system: OVCAR-5 ovarian
# OVCAR-8 ovarian = test system: OVCAR-8 ovarian
# SF-295 CNS = test system: SF-295 CNS
# SK-MEL-2 melanoma = test system: SK-MEL-2 melanoma
# SK-OV-3 ovarian = test system: SK-OV-3 ovarian
# SN12C renal = test system: SN12C renal
# SNB-75 CNS = test system: SNB-75 CNS
SMILES,TGI (HS 578T breast),TGI (MCF7 breast),TGI (NCI-H226 lung),TGI (OVCAR-5 ovarian),TGI (OVCAR-8 ovarian),TGI (SF-295 CNS),TGI (SK-MEL-2 melanoma),TGI (SK-OV-3 ovarian),TGI (SN12C renal),TGI (SNB-75 CNS)
Oc1cccc2c(Br)ccnc12,50.5 µM,> 31.6 µM,29.8 µM,20 µM,> 36.2 µM,> 100 µM,27.1 µM,66.8 µM,21.7 µM,66.2 µM
Cc1c(OCc2cccc3ccccc23)ccc2c(=O)cc(SCCN3CCOCC3)oc12,> 100 µM,> 100 µM,> 100 µM,> 100 µM,> 100 µM,> 100 µM,> 100 µM,–,> 100 µM,> 100 µM
CC(c1ccccc1)n1cncc1C(=O)NN1CCN(C)CC1 (stereo unspecified),> 10 µM,> 10 µM,> 10 µM,> 10 µM,> 10 µM,> 10 µM,> 10 µM,> 10 µM,> 10 µM,–
CC(C)[C@H](C)/C=C/[C@@H](C)C1CC[C@H]2[C@@]34C=C[C@]5(C[C@@H](O)CC[C@]5(C)[C@H]3CC[C@]12C)OO4 (stereo partly specified),–,> 100 µM,49.9 µM,> 100 µM,66.4 µM,> 100 µM,88.8 µM,> 100 µM,79.7 µM,> 100 µM
Cc1cn(C2CC(COCc3ccccc3)N(CCO[Si](C)(C)C(C)(C)C)O2)c(=O)[nH]c1=O (stereo unspecified),–,33 µM,–,32 µM,28.8 µM,29.9 µM,30 µM,31.4 µM,25.1 µM,–
CCC1=C(C[C@H]2NCCc3cc(OC)c(OC)cc32)C[C@H]2c3cc(OC)c(OC)cc3CCN2C1,–,–,–,0.49 µM,0.137 µM,0.189 µM,0.0713 µM,0.73 µM,0.193 µM,0.107 µM
COC(=O)C(Cc1c[nH]c2ccccc12)NC(=O)C(Cc1c[nH]c2ccccc12)NC(=O)C(Cc1c[nH]c2ccccc12)NC(=O)C(Cc1c[nH]c2ccccc12)NC(=O)C(Cc1c[nH]c2ccccc12)NC(=O)C(Cc1c[nH]c2ccccc12)NC(=O)C(Cc1c[nH]c2ccccc12)NC(=O)OC(C)(C)C (stereo unspecified) (Boc-WWWWWWW-OMe; configuration not given here),–,> 100 µM,> 100 µM,> 100 µM,> 100 µM,–,87.9 µM,–,> 100 µM,> 100 µM
COC(=O)CCC(=O)NC1=C(Nc2ccccc2)C(=O)c2ccccc2C1=O,32.7 µM,10.4 µM,28.6 µM,19.7 µM,47.4 µM,29.9 µM,16.4 µM,30.9 µM,28.9 µM,33.2 µM
O=C1N2CCC[C@H]2CS1(=O)=O,> 100 µM,21.8 µM,72.2 µM,93.7 µM,55.1 µM,> 100 µM,34.4 µM,> 100 µM,29.1 µM,41.2 µM
Cc1cc(S(=O)(=O)Nc2nc3cscc3c(=O)n2N)c(S)cc1Cl,–,> 100 µM,48.5 µM,64 µM,> 100 µM,> 100 µM,> 100 µM,> 100 µM,> 100 µM,58.5 µM
Cc1ccc(N=C/C=C(\Nc2ccc(C)cc2)c2ccc3ccccc3c2)cc1,36.8 µM,16.5 µM,4.48 µM,6.24 µM,> 100 µM,3.9 µM,11.2 µM,9.71 µM,–,6.16 µM
